BindingDB's records for doi:10.1016/j.bioorg.2014.11.006 (Comsats Institute of Information Technology, 2015)

Each compound was assayed against Alpha-glucosidase MAL12 (Saccharomyces cerevisiae (strain ATCC 204508 / S288c), UniProt P53341) (assay: Alpha-glucosidase Inhibition Assay). Settings: 37 °C.
Method: A 100 µL assay mixture containing 70 µL phosphate buffer saline (50 mM at pH 6.8), 10 µL corresponding test compounds dissolved in methanol/DMSO (0.5 mM) and 10 µL (0.057 units) α-glucosidase enzyme were mixed, pre-incubated for 10 min at 37C and the abosrbance was recorded at 400 nm. The reaction was initiated by the addition of 10 µL p-nitrophenyl-α-D-glucopyranoside (substrate, 0.5 mM/well).

Sequence of Alpha-glucosidase MAL12 (P53341 whole entry): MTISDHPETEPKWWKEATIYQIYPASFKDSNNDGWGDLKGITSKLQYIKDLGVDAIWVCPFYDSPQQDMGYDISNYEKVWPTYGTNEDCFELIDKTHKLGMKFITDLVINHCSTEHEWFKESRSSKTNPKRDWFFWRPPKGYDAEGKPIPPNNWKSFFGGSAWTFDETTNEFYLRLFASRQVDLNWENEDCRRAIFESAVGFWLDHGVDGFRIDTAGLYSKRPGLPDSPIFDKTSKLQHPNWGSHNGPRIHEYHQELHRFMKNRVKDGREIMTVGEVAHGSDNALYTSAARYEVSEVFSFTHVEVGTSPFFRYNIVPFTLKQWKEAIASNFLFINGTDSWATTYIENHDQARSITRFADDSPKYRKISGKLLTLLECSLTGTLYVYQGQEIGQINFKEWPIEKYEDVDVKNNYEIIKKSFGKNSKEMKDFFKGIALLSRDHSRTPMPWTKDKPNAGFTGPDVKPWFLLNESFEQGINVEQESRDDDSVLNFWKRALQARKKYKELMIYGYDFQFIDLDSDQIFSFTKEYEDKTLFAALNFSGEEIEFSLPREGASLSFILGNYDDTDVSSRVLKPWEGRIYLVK

IC50 [µM] | Compound
107 | COc1cccc(-c2nc(-c3ccccc3)c(-c3ccccc3)[nH]2)c1O [2-(4,5-Diphenyl-1H-imidazol-2-yl)-6-methoxyphenol (3g)]
359 | COc1cccc(-c2nc(-c3ccccc3)c(-c3ccccc3)[nH]2)c1
97.1 | Oc1ccc(-c2nc(-c3ccccc3)c(-c3ccccc3)[nH]2)cc1 [SR-01000511510-2]
458 | Clc1ccc(-c2nc(-c3ccccc3)c(-c3ccccc3)[nH]2)cc1

Compound | IC50 [µM]
Oc1ccccc1-c1nc(-c2ccccc2)c(-c2ccccc2)[nH]1 | 74.3
